We go through 14 molecules from patent publication US7705028B2, “Farnesoid X receptor agonists” (GlaxoSmithKline LLC, priority 2005, dated 2010).

Where a name gives a salt, the structure may show the parent alone. Read-outs that look alike come from different tables or passages of the source. Some results are limits rather than exact numbers.

In assay [1] the target is T1, human FXR ligand binding domain (LBD) (Homo sapiens, UniProt Q96RI1).
T1 construct: polyhistidine (pRSET-A vector leader) (N); made in house; host or cells: E. coli BL21 (DE3), pRSET-A vector
T1 sequence (Q96RI1 237-472 isoform Q96RI1-2): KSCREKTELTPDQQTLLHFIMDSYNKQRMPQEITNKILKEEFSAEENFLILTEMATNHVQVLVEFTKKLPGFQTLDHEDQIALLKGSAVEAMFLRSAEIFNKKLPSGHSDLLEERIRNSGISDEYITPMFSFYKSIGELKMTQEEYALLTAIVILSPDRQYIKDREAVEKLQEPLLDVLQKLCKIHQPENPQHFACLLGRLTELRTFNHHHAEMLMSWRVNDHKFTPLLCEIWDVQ
T1 sequence (Q15788 676-700 partner): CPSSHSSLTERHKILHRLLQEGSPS
Briefly: FXR Cofactor Binding Assay (TRF, SRC-1 peptide recruitment). The class given is biochemical. As to conditions: read-out: Activity (pEC50) (converted). The text has this:
Determination of a ligand mediated cofactor peptide interaction to quantify ligand binding to the nuclear receptor Farnasoid X Receptor (FXR). The method measures the ability of putative ligands to modulate the interaction between the purified bacterial expressed human FXR ligand binding domain (LBD) and a synthetic biotinylated peptide based on residues 676-700 of steroid receptor coactivator-1 (SRC-1) (LXXLL-containing domain-2 where L is the amino acid leucine and X indicates any other amino acid (LCD2), 676-700). The sequence of the SRC-1 peptide used is as published in Iannone, M. A. et al, Cytometry 44:326-337 (2001) where the N-terminus was biotinylated (B) and the C-terminus was amidated. Detection of the associated complex was measured by time resolved fluorescence (TRF). The purified LBD of FXR was labeled with biotin then mixed with stoichiometric amounts of allophycocyanin (APC) labeled streptavidin (Molecular Probes). The biotinylated peptide was then mixed with a ½ stoichiometric amount of europium labeled streptavidin (Wallac Inc). Each was then blocked with a 5 fold excess of biotin and allowed to equilibrate for 15 min. Equimolar amounts of receptor and peptide were mixed together and were allowed to equilibrate for at least 30 min prior to the addition to either a variable or constant concentrations of the sample for which the affinity is to be determined. After equilibration, the time-resolved fluorescent signal was quantitated using a fluorescent plate reader. The affinity of the test compound was estimated from a plot of fluorescence versus concentration of test compound added.
A basal level of FXR: peptide formation is observed in the absence of added ligand. Ligands that promote the complex formation induce a concentration-dependent increase in time-resolved fluorescent signal. Compounds which bind equally well to both non-/un-complexed FXR and to the FXR: peptide complex would be expected to give no change in signal, whereas ligands which bind preferentially to the non-/un-complexed receptor would be expected to induce a concentration-dependent decrease in the observed signal.
Human FXR Ligand Binding Domain (FXR LBD) was expressed in E. coli strain BL21 (DE3) as an amino-terminal polyhistidine tagged fusion protein. Expression was under the control of an isopropyl-β-D-thiogalactopyranoside (IPTG) inducible T7 promoter. DNA encoding this recombinant protein is subcloned into the pRSET-A expression vector (Invitrogen). The coding sequence of Human FXR LBD was derived from Genbank accession number U 68233 (amino acids 237 to 472).
Ten-liter fermentation batches were grown in Rich PO4 media with 0.1 mg/mL Ampicillin at 25° C. for 12 hours, cooled to 9° C. and held at that temperature for 36 hours to a density of OD600=14. At this cell density, 0.25 mM IPTG is added and induction proceeded for 24 hours at 9° C., to a final OD600=16. Cells are harvested by centrifugation (20 minutes, 3500× gravity, 4° C.), and concentrated cell slurries were stored in phosphate buffered saline (PBS) at […].
Routinely, 30-40 g cell paste (equivalent to 2-3 liters of the fermentation batch) was resuspended in 200-250 mL Tris buffered saline (TBS), pH 7.2 (25 mM Tris-Hydroxymethylamino methane (Tris), 150 mM NaCl). Cells were lysed by passing 3 times through a French Press and cell debris was removed by centrifugation (30 minutes, 20,000× gravity, 4° C.). The cleared supernatant was filtered through course pre-filters, and TBS, pH 7.2, 500 mM imidazole was added to obtain a final imidazole concentration of 50 mM. This lysate was loaded onto a column (6×8 cm) packed with Sepharose [Ni^++ charged] Chelation resin (Pharmacia) and pre-equilibrated with TBS pH 7.2/50 mM imidazole. After washing to baseline absorbance with equilibration buffer, the column was washed with one column volume of TBS pH 7.2 containing 90 mM imidazole. FXR LBD was eluted directly with 365 mM imidazole. […]

Assay [2] concerns high-fat diet induced insulin resistant, glucose intolerant, and obese mouse model. Briefly: High-fat diet induced insulin resistant, glucose intolerant, obese mouse model. Type of assay: in vivo. To be noted: C57BL mice, 100 mg/kg twice a day orally. The text has this:
Compounds of formula (I) are also useful for the treatment of diabetes mellitus in a subject, such as a mammal, particularly a human. For example, the compounds of formula (I) are useful for the treatment of type 2 diabetes. The effects of an FXR agonist, GW4064, on body weight, glucose tolerance, serum glucose, serum insulin, serum triglyceride, and liver triglyceride contents via oral administration have been observed in an high-fat diet induced insulin resistant, glucose intolerant, and obese mouse model. Male 20 to 25 g C57BL mice (Charles River, Indianapolis, Ind.) were housed at 72° F. and 50% relative humidity with a 12 h light and dark cycle and fed with standard rodent chow (Purina 5001, Harlan Teklad, Indianapolis, Ind.) or a high-fat diet (TD93075, Harlan Teklad, Indianapolis, Ind.) for seven weeks. After two weeks, mice on high-fat diet were randomized to vehicle or treatment groups. There were no significant difference in body weight, body fat mass, serum glucose and insulin, and area under the curve (AUC) for glucose in glucose tolerance test (GTT) between the vehicle group and the treatment group. Starting from the fourth week, mice were given either vehicle or GW4064 (100 mg/kg) twice a day orally. Mice on the standard rodent chow were also given vehicle as a control. At the end of the third week of compound treatment, a GTT was performed and body composition was measured using the quantitative magnetic resonance (QMR) method. […] Blood glucose during GTT was measured using Bayer Glucometer Elite® XL. Serum chemistry levels were measured using the Instrumentation Laboratory Ilab600™ clinical chemistry analyzer (Instrumentation Laboratory, Boston, Mass.). Liver triglyceride contents were measured using the methanolic-KOH saponification method and a triglyceride assay kit (GPO-TRINDER, Sigma Diagnostics, St. Louis, Mo.). […] It is believed that the result may have been due to a decrease in fat mass.

Assay [3] has as its system bile duct-ligated mouse model of cholestasis and intestinal bacterial overgrowth. To be noted: cited from earlier work.
The test system of assay [4] is mice on a lithogenic diet. To be noted: cited from earlier work.
Setting [5] is: protocol ⋄: 0.5 μL of test compound, final assay volume 25 μL.
Setting [6] is: protocol †: 0.1 μL of test compound, final assay volume 10 μL.

For the molecule `CC(C)c1onc(-c2c(Cl)cccc2Cl)c1COc1ccc(-c2ccc3c(-c4nn[nH]n4)cccc3c2)cc1` [Example 12c, 5-{6-[4-({[3-(2,6-dichlorophenyl)-5-(1-methylethyl)-4-isoxazolyl]methyl}oxy)phenyl]-1-naphthalenyl}-1H-tetrazole], the EC50 in assay [1] (setting [5]) is 102 to 1000 nM.
`CC(C)c1onc(CCc2c(Cl)cccc2Cl)c1COc1ccc(-c2ccc3ccc(C(=O)O)cc3c2)cc1` [Example 9, 7-[4-({[3-[2-(2,6-dichlorophenyl)ethyl]-5-(1-methylethyl)-4-isoxazolyl]methyl}oxy)phenyl]-2-naphthalenecarboxylic acid]: the EC50 in assay [1] (setting [6]) was 102 to 1000 nM.
For `CC(C)c1onc(-c2c(Cl)cccc2Cl)c1COc1ccc(/C=C/c2cccc(C(=O)O)c2)c(Cl)c1` [GW4064], the “high-fat diet induced body weight gain” value in assay [2] is “reduced the high-fat diet induced body weight gain”. Also, in assay [2] (end of third week of treatment), the “glucose tolerance (GTT)” value is given as “appeared to improve glucose tolerance”. Moreover, in assay [2] (fourth week of treatment), the liver triglyceride content result is reported as “reduced liver triglyceride content”, the serum glucose result is “decreased”, the serum insulin result is recorded as “decreased” and the serum triglyceride entry is “decreased”. Moreover, the “effect on translocation of bacteria in FXR null mice” value in assay [3] (FXR null mice) is given as “lost in FXR null mice”. In addition, in assay [3] (bile duct-ligated mice), the bacterial overgrowth entry is listed as “decreased bacterial overgrowth”, the mucosal barrier result is “improved mucosal barrier” and the “translocation of bacteria to mesenteric lymph nodes” value is “decreased translocation of bacteria to mesenteric lymph nodes”. Moreover, the “effect on cholesterol crystal formation in FXR null mice” value in assay [4] (FXR null mice) is “lost in FXR null mice”. Also, in assay [4] (mice on a lithogenic diet), the “formation of cholesterol crystals in the bile” value was “prevented the formation of cholesterol crystals in the bile”.
With `CC(C)c1onc(-c2c(Cl)cccc2Cl)c1COc1ccc(-c2ccc3c(C(N)=O)cccc3c2)cc1` [Example 12a, 6-[4-({[3-(2,6-dichlorophenyl)-5-(1-methylethyl)-4-isoxazolyl]methyl}oxy)phenyl]-1-naphthalenecarboxamide], in assay [1] (setting [5]), the EC50 was 1020 to 10000 nM.
For `CC(C)c1onc(-c2c(Cl)cccc2Cl)c1COc1ccc(-c2ccc3ccc(C(=O)O)cc3c2)cc1` [Example 8, 7-[4-({[3-(2,6-dichlorophenyl)-5-(1-methylethyl)-4-isoxazolyl]methyl}oxy)phenyl]-2-naphthalenecarboxylic acid], the EC50 in assay [1] (setting [6]) is 102 to 1000 nM.
Still for that read-out and setting: under `CC(C)c1onc(CCc2c(Cl)cccc2Cl)c1COc1ccc(-c2ccc3cccc(C(=O)O)c3c2)cc1` [Example 11, 7-[4-({[3-[2-(2,6-dichlorophenyl)ethyl]-5-(1-methylethyl)-4-isoxazolyl]methyl}oxy)phenyl]-1-naphthalenecarboxylic acid] stands 1020 to 10000 nM.
Regarding `CC(C)c1onc(-c2c(Cl)cccc2Cl)c1COc1ccc(-c2ccc3c(C(=O)O)cccc3c2)c(Cl)c1` [Example 2, 6-[2-Chloro-4-({[3-(2,6-dichlorophenyl)-5-(1-methylethyl)-4-isoxazolyl]methyl}oxy)phenyl]-1-naphthalenecarboxylic acid], in assay [1] (setting [6]), the EC50 is 102 to 1000 nM.
As to `O=C(O)c1cccc2cc(-c3ccc(OCc4c(-c5c(Cl)cccc5Cl)noc4C4CCC4)cc3)ccc12` [Example 3, 6-[4-({[5-cyclobutyl-3-(2,6-dichlorophenyl)-4-isoxazolyl]methyl}oxy)phenyl]-1-naphthalenecarboxylic acid], the EC50 in assay [1] (setting [6]) was 102 to 1000 nM.
On to `CC(C)c1onc(-c2c(Cl)cccc2Cl)c1COc1ccc(-c2ccc3c(C#N)cccc3c2)cc1` [Example 12b, 6-[4-({[3-(2,6-dichlorophenyl)-5-(1-methylethyl)-4-isoxazolyl]methyl}oxy)phenyl]-1-naphthalenecarbonitrile], for which the EC50 in assay [1] (setting [5]) is 1020 to 10000 nM.
As for `CC(C)c1onc(-c2c(Cl)cccc2Cl)c1COc1ccc(-c2ccc3c(C(=O)O)cccc3c2)cc1` [Example 1, 6-[4-({[3-(2,6-Dichlorophenyl)-5-(1-methylethyl)-4-isoxazolyl]methyl}oxy)phenyl]-1-naphthoic Acid Sodium Salt], the EC50 in assay [1] (setting [6]) and in assay [1] (setting [5]) was less than 100 nM each time.
Regarding `CC(C)c1onc(-c2c(Cl)cccc2Cl)c1COc1ccc(-c2ccc3cc(C(=O)O)ccc3c2)cc1` [Example 6, 6-(4-{[3-(2,6-dichlorophenyl)-5-isopropylisoxazol-4-yl]methoxy}phenyl)-2-naphthoic acid], the EC50 in assay [1] (setting [6]) was 102 to 1000 nM.
On to `CC(C)c1onc(Cc2c(Cl)cccc2Cl)c1COc1ccc(-c2ccc3c(C(=O)O)cccc3c2)cc1` [Example 4, 6-[4-({[3-[(2,6-dichlorophenyl)methyl]-5-(1-methylethyl)-4-isoxazolyl]methyl}oxy)phenyl]-1-naphthalenecarboxylic acid], for which, in assay [1] (setting [5]), the EC50 is 102 to 1000 nM.
Consider `CC(C)c1onc(-c2c(Cl)cccc2Cl)c1COc1ccc(-c2ccc3cccc(C(=O)O)c3c2)cc1` [Example 10, 7-[4-({[3-(2,6-dichlorophenyl)-5-(1-methylethyl)-4-isoxazolyl]methyl}oxy)phenyl]-1-naphthalenecarboxylic acid], for which, in assay [1] (setting [6]), the EC50 was 1020 to 10000 nM.
Take `CC(C)c1onc(CCc2c(Cl)cccc2Cl)c1COc1ccc(-c2ccc3c(C(=O)O)cccc3c2)cc1` [Example 5, 6-[4-({[3-[2-(2,6-dichlorophenyl)ethyl]-5-(1-methylethyl)-4-isoxazolyl]methyl}oxy)phenyl]-1-naphthalenecarboxylic acid]: the EC50 is 102 to 1000 nM in assay [1] (setting [6]) and less than 100 nM in assay [1] (setting [5]).
